Data published in patent publication US9109175B2, “Isoprenoid based alternative diesel fuel” (The Regents of the University of California, priority 2010, dated 2015).
Marks after values point to notes of the source that are not given here.

Columns and labels:
Assay type in all cases: physicochemical
[1] = Cetane number, ASTM D6890 / D613; settings: for Cetane number: ASTM D6890
Procedure: “Cetane number” refers to a measure of how readily a fuel starts to burn (autoignite) under conditions described by ASTM D613 or ASTM D6890. A fuel with a high cetane number starts to burn shortly after it is injected into the cylinder; it has a short ignition delay period. Conversely, a fuel with a low cetane number resists autoignition and has a longer ignition delay period.
(§1) Fuel property testing of hydrogenated bisabolene was carried out using standard ASTM methods known to and used by those of skill in the art. Table 1 sets forth the various fuel properties analyzed for each of Diesel Fuel Grade #2, bisabolene (mixture of isomers) and hydrogenated bisabolene as well as the ASTM test methods employed to analyze the particular fuel property.

[2] = Kinetic viscosity, ASTM D445; settings: ASTM D445, 40° C.
Procedure: “Viscosity” refers to a measure of the resistance of a fuel or fuel composition to deform under shear stress. The generally accepted method for measuring the viscosity of a fuel is ASTM Standard D445, which is incorporated herein by reference.
as §1

[3] = Distillation temperature, ASTM D2887 / D86
Procedure: as §1

Flash point, ASTM D93 = assay: Flash point, ASTM D93
Procedure: as §1

Density, ASTM D4052 = settings: ASTM D4052, 15.56° C.
Procedure: “Density” refers to a measure of mass per volume at a particular temperature. The generally accepted method for measuring the density of a fuel is ASTM Standard D4052, which is incorporated herein by reference.
as §1

API gravity, ASTM D4052 = settings: ASTM D4052, 15.56° C.
Procedure: as §1

[4] = Cloud point, ASTM D5773 / D2500
Procedure: as §1

Freeze point, ASTM D5972 = assay: Freeze point, ASTM D5972
Procedure: as §1

With `CC(C)CCCC(C)C1CCC(C)CC1` (stereo not shown) [Hydrogenated biosynthetic bisabolene, 1(1,5-dimethylhexyl)-4-methylcyclohexane] as the compound, how does the Cetane number [1] read?
The Cetane number was 52.6.

Which results are given for `CC(C)CCCC(C)C1CCC(C)CC1` (stereo not shown) [Hydrogenated commercial bisabolene, 1(1,5-dimethylhexyl)-4-methylcyclohexane]?
Kinetic viscosity (@ 40° C.) [2]: 2.91 mm^2/s; Distillation [3]: 267^d ° C.; Flash point (Flash point, ASTM D93): 111 °C; Density (@ 15.56° C.) (Density, ASTM D4052): 819.7 kg/m^3; API Gravity (@ 15.56° C.) (API gravity, ASTM D4052): 41; Cloud point [4]: <−78 °C; Cetane number [1]: 41.9; Freeze point (Freeze point, ASTM D5972): <−81 °C

With `CC(C)CCCC(C)C1CCC(C)CC1` (stereo not shown) [hydrogenated bisabolene] as the compound, how does the “Derived Cetane Number (DCN)” value [1] read?
Its value is “about 42”.
